From patent US10849847B2, “Compositions and methods for treating rosacea and acne” (Foamix Pharmaceuticals Ltd., priority 2016, dated 2020)
Read-outs that look alike come from different tables or passages of the source.

How the values were obtained:
[1] = for Compatibility with Minocycline HCl: tested after the storage for up to 3 weeks; for Compatibility with Minocycline HCl (observations): on dissolution / storage; for Effect of anti-oxidant on oxidation of Minocycline HCl: waterless medium of propylene glycol and PEG 200
Method: The ratio between MCH and the tested excipient is detailed below. Visual inspection was the major criterion for indication of compatibility. The color of intact MCH suspension is pale yellow; and any change of color (e.g., to dark orange, red, green, brown and black) indicates oxidation or degradation.
Other than hydrogenated castor oil, beeswax, paraffin and hard fat, the aforesaid items listed are oily emollients.
Additives were tested for compatibility with MCH. […] In parallel, antioxidants were added to the MCH suspensions comprising water.

[2] = Doxycycline Hyclate Compatibility Test; type: physicochemical; conditions: for Effect of anti-oxidant on oxidation of Doxycycline Hyclate: waterless medium of propylene glycol and PEG 200
Method: (§1) A similar compatibility study was conducted for Doxycycline Hyclate and Doxycycline Monohydrate.
(§2) Different compositions of hydrophilic and hydrophobic solvents containing Doxycycline Hyclate (Set I and Set II) and Doxycycline Monohydrate (Set III) were prepared by weighing the antibiotic in a glass vial and shaking overnight with each solvent investigated.
Group II included Doxycycline Hyclate mixed with various vehicles with addition of antioxidants like alpha tocopherol, butylated hydroxytoluene (BHT), and ascorbic acid.

[3] = Phase I PK study in adults with acne: topical minocycline foam 4% for 21 days vs single oral dose of minocycline (FX2014-03); type: in vivo, human; conditions: Period 1, single oral dose ~1 mg/kg minocycline, Day 1-5; for AUC(0-inf) / AUC / Cmax / half-life / Tmax: both sexes, human, plasma, po, 1 mg/kg
Method: Each application was approximately 4 g (a maximal-use dose). […] On the day of initial dosing (Day 1), subjects checked into the clinic where they were confined until 1 hour after study drug was administered. Predose clinical assessments were performed and a 1 mL blood sample for PK analysis was obtained before study drug was administered.
SUBJECTS: Adults were eligible for this study if they were 18 to 35 years of age; children were eligible for the pediatric study if they were 9 to 16 years and 11 months of age and in good health, as judged on the basis of their medical history and the screening procedures. They were required to have moderate-to-severe facial acne vulgaris as well as acne affecting at least two additional regions of the body (neck, upper chest, upper back, or arms).
On days 6, 9, 10, 11, and 16, blood samples were obtained at approximately 30 minutes before the scheduled application. […] After the final application, subjects were asked to return for additional blood sampling on days 23, 24, and 25.
BIOANALYTICAL METHODS: Blood samples were collected and centrifuged, and the separated plasma was stored at approximately −70° C.
Actual sample collection times were used for the purpose of calculating pharmacokinetic parameters. […] Geometric mean was calculated for Cmax, AUC0-tldc, AUC0-inf, and AUC0-tau, and the harmonic mean was calculated for t1/2. Analysis of multiple-dose accumulation, determination of steady state, and other pertinent comparisons of pharmacokinetic parameters across or between doses were performed using the appropriate statistical methods. […] The CIs were expressed as a percentage relative to the LSM of the reference treatment.

[4] = test system: papulopustular rosacea; conditions: cited from earlier work; for IGA = Clear/Almost Clear / Inflammatory Lesions: Mean Absolute Reduction / ≥2 IGA Grade Reduction: Week 16
[5] = Doxycycline Monohydrate Compatibility Test; type: physicochemical
Method: as §1, §2
A similar compatibility test was performed on another form of Doxycycline—Doxycycline Monohydrate.

[6] = Doxycycline Monohydrate Compatibility Test; type: physicochemical; conditions: waterless medium of propylene glycol and PEG 200
[7] = foam adjuvants, MCH:excipient 1:50
[8] = tested after the storage for up to 3 weeks
[9] = oily emollients, MCH:excipient 1:250, 25° C. and 40° C., maximum sixty days
[10] = mixtures stored at 25° C., 40° C. and 50° C. for two weeks
[11] = surfactants solubilized in mineral oil, MCH:excipient 1:50
[12] = hydrophilic solvents, MCH:excipient 1:250, 25° C. and 40° C., maximum sixty days

In the case of `CCCCCCCCCCCCCCCC(=O)O` [Palmitic acid], the “Compatibility with MCH” value [1, 7] is reported as “compatible”.

In the case of `CC(C)CCCCCCCCCCCCCCC(=O)O` [Isostearic acid], the “Compatibility with Doxycycline Hyclate” value [2, 8] is reported as “Yes”, the “Compatibility with MCH” value [1, 7] is reported as “not compatible” and the “Compatibility with Minocycline HCl” value [1] is reported as “No”.

With `CN(C)c1ccc(O)c2c1C[C@H]1C[C@H]3[C@H](N(C)C)C(O)=C(C(N)=O)C(=O)[C@@]3(O)C(O)=C1C2=O` [Solodyn] the “kel, Mean” value [3] was 0.044 h⁻¹, the “kel, Median” value [3] was 0.04 h⁻¹ and the AUC(0-inf) ([3]; read-out: AUC0-inf, Geometric Mean) was 15100 ng·h/mL. The AUC(0-inf) ([3]; read-out: AUC0-inf, Mean) was 15500 ng·h/mL, the AUC(0-inf) ([3]; read-out: AUC0-inf, Median) was 15600 ng·h/mL and the AUC ([3]; read-out: AUC0-tldc, Geometric Mean) was 14800 ng·h/mL. For the same compound, the AUC ([3]; read-out: AUC0-tldc, Mean) was 15200 ng·h/mL, the AUC ([3]; read-out: AUC0-tldc, Median) was 15400 ng·h/mL and the Cmax ([3]; read-out: Cmax, Geometric Mean) was 850 ng/mL. The Cmax ([3]; read-out: Cmax, Mean) was 873 ng/mL, the Cmax ([3]; read-out: Cmax, Median) was 801 ng/mL and the half-life ([3]; read-out: T1/2, Harmonic Mean (converted)) was 15.8 h. The half-life ([3]; read-out: T1/2, Mean (converted)) was 16 h, the half-life ([3]; read-out: T1/2, Median (converted)) was 15.9 h and the Tmax ([3]; read-out: Tmax, Mean) was 2.7 h. For the same compound, the Tmax ([3]; read-out: Tmax, Median) was 3 h.

With `CCCCCCCCCCCCCCCCCCCCCCO` [Behenyl alcohol] the “Compatibility with MCH” value [1, 7] was “compatible”.

For `C[C@H]1c2cccc(O)c2C(=O)C2=C(O)[C@]3(O)C(=O)C(C(N)=O)=C(O)[C@@H](N(C)C)[C@@H]3[C@@H](O)[C@@H]21` [Oracea], the “Baseline IGA Moderate” value ([4]; Study 1, Active) is given as 52.8%, the “Baseline IGA Severe” value ([4]; Study 1, Active) is given as 40.9% and the “Inflammatory Lesions: Baseline No. of lesions” value ([4]; Study 1, Active) is given as 19.5. For the same compound, the “Baseline IGA Moderate” value ([4]; Study 2, Active) was 54.2%, the “Baseline IGA Severe” value ([4]; Study 2, Active) was 33.8% and the “Inflammatory Lesions: Baseline No. of lesions” value ([4]; Study 2, Active) was 20.5. The “IGA = Clear/Almost Clear” value ([4]; Study 1, Active) was 30.7%, the “Inflammatory Lesions: Mean Absolute Reduction” value ([4]; Study 1, Active) was −11.8 and the “≥2 IGA Grade Reduction” value ([4]; Study 1, Active) was 45.7%. For the same compound, the “IGA = Clear/Almost Clear” value ([4]; Study 2, Active) was 14.8%, the “Inflammatory Lesions: Mean Absolute Reduction” value ([4]; Study 2, Active) was −9.5 and the “≥2 IGA Grade Reduction” value ([4]; Study 2, Active) was 22.5%.

In the case of `CC1CCC(C(C)C)C(O)C1` (stereo not drawn) [Menthol], the “Compatibility with MCH” value ([1]; additives, MCH:excipient 1:50) is reported as “compatible”.

In the case of `CC(C)OC(=O)CCCCC(=O)OC(C)C` [diisopropyl adipate], the “Compatibility with Doxycycline Monohydrate” value [5, 8] is reported as “No”, the “Compatibility with Doxycycline Hyclate” value [2, 8] is reported as “Yes” and the “Compatibility with MCH” value [1, 9] is reported as “compatible”. For the same compound, the “Compatibility with Minocycline HCl” value [1] was “Yes”.

In the case of `CCCCCCCCCCCCCCO` [Myristyl alcohol], the “Compatibility with Doxycycline Hyclate” value [2, 8] is reported as “Yes”, the “Compatibility with MCH” value [1, 7] is reported as “compatible” and the “Compatibility with Minocycline HCl” value [1] is reported as “Yes”.

With `CCCCCCCCCCCCCCCCO` [Cetyl alcohol] the “Compatibility with MCH” value [1, 7] was “compatible”.

For `CCCCCCCCCCC(CO)CCCCCCCC` (stereo not drawn) [Octyl dodecanol], the “Compatibility with Doxycycline Monohydrate” value [5, 10] was “incompatibility”, the “Compatibility with Doxycycline Monohydrate” value [5, 8] was “No” and the “Compatibility with Doxycycline Hyclate” value [2, 10] was “incompatibility”. For the same compound, the “Compatibility with Doxycycline Hyclate” value [2, 8] was “No”, the “Compatibility with MCH” value [1, 9] was “compatible” and the “Compatibility with Minocycline HCl (observations)” value [1] was “full compatibility”. For the same compound, the “Compatibility with Minocycline HCl” value [1] was “Yes”.

For SPAN 60, the “Compatibility with MCH” value [1, 11] was “incompatible”.

For SPAN 80, the “Compatibility with MCH” value [1, 11] was “incompatible”.

With `OCCCCO` [Butylene Glycol] the “Compatibility with Doxycycline Monohydrate” value [5, 8] was “No”, the “Compatibility with Doxycycline Hyclate” value [2, 8] was “No” and the “Compatibility with MCH” value [1, 12] was “incompatible”. The “Compatibility with Minocycline HCl” value [1] was “No”.

For Sorbitan sesquistearate, the “Compatibility with MCH” value [1, 11] was “incompatible”.

In the case of SPAN 40, the “Compatibility with MCH” value [1, 11] is reported as “incompatible”.

In the case of `CCOCCOCCO` [Diethylene glycol monoethyl ether], the “Compatibility with MCH” value [1, 12] is reported as “incompatible”.

With `C[S+](C)[O-]` [Dimethyl Sulfoxide] the “Compatibility with MCH” value [1, 12] was “incompatible”.

For `CCCCCCCCCCCCCCCCCC(=O)OCC(O)CO` (stereo not drawn) [Glyceryl monostearate], the “Compatibility with MCH” value [1, 11] was “incompatible”.

For Sorbitan Monostearate, the “Compatibility with Doxycycline Hyclate” value [2, 8] was “Yes” and the “Compatibility with Minocycline HCl” value [1] was “Yes”.

For `CCCCCCCC/C=C\CCCCCCCC(=O)O` [Oleic acid], the “Compatibility with MCH” value [1, 7] was “compatible”.

For `CC(O)CO` (stereo not drawn) [Propylene glycol], the “Compatibility with Doxycycline Monohydrate” value [5, 8] was “No”, the “Compatibility with Doxycycline Hyclate” value [2, 8] was “No” and the “Compatibility with MCH” value [1, 12] was “incompatible”. The “Compatibility with Minocycline HCl” value [1] was “No”.

In the case of `CCCCCCCCCCCCCC(=O)OC(C)C` [Isopropyl myristate], the “Compatibility with MCH” value [1, 9] is reported as “compatible”.

For `CC(C)CCCCCCCCCCCCCCCO` [Isostearyl alcohol], the “Compatibility with MCH” value [1, 7] was “compatible”.

With `O=C1O[C@H]([C@@H](O)CO)C(O)=C1O` [ascorbic acid] the “Effect of anti-oxidant on oxidation of Doxycycline Hyclate” value [2] was “did not prevent the oxidation”, the “Effect of anti-oxidant on oxidation of Doxycycline Monohydrate” value [6] was “did not prevent the oxidation” and the “Effect of anti-oxidant on oxidation of Minocycline HCl” value [1] was “did not prevent the oxidation”.

For Cyclomethicone, the “Compatibility with MCH” value [1, 9] was “compatible”.

With `OCC(O)CO` [Glycerin] the “Compatibility with Doxycycline Monohydrate” value [5, 8] was “No”, the “Compatibility with Doxycycline Hyclate” value [2, 8] was “No” and the “Compatibility with MCH” value [1, 12] was “incompatible”. The “Compatibility with Minocycline HCl (observations)” value [1] was “intensive oxidation” and the “Compatibility with Minocycline HCl” value [1] was “No”.

In the case of `CCCOC(=O)c1cc(O)c(O)c(O)c1` [propyl gallate], the “Effect of antioxidant on MCH degradation” value [1] is reported as “did not prevent MCH degradation”.

For `CCCCCCCCCCCCCCCCCC(=O)O` [Stearic acid], the “Compatibility with MCH” value [1, 7] was “compatible”.

In the case of `CCCCCCCC/C=C\CCCCCCCCO` [Oleyl alcohol], the “Compatibility with Doxycycline Hyclate” value [2, 8] is reported as “Yes”, the “Compatibility with MCH” value [1, 7] is reported as “compatible” and the “Compatibility with Minocycline HCl” value [1] is reported as “Yes”.

With `Cc1c(C)c2c(c(C)c1O)CC[C@@](C)(CCC[C@H](C)CCC[C@H](C)CCCC(C)C)O2` [alpha-tocopherol] the “Effect of anti-oxidant on oxidation of Doxycycline Hyclate” value [2] was “did not prevent the oxidation”, the “Effect of anti-oxidant on oxidation of Doxycycline Monohydrate” value [6] was “did not prevent the oxidation” and the “Effect of antioxidant on MCH degradation” value [1] was “did not prevent MCH degradation”. The “Effect of anti-oxidant on oxidation of Minocycline HCl” value [1] was “did not prevent the oxidation”.

With `C[Si]1(C)O[Si](C)(C)O[Si](C)(C)O[Si](C)(C)O[Si](C)(C)O1` [Cyclomethicone 5 NF] the “Compatibility with Doxycycline Monohydrate” value [5, 8] was “Yes”, the “Compatibility with Doxycycline Hyclate” value [2, 8] was “Yes” and the “Compatibility with Minocycline HCl” value [1] was “Yes”.

For `CCCCCCCCCCCCCCCCCCO` [Stearyl alcohol], the “Compatibility with Doxycycline Hyclate” value [2, 8] was “Yes”, the “Compatibility with MCH” value [1, 7] was “compatible” and the “Compatibility with Minocycline HCl” value [1] was “Yes”.

In the case of `CO[C@H]1CO[C@H]2[C@@H]1OC[C@H]2OC` [Dimethyl Isosorbide], the “Compatibility with Doxycycline Monohydrate” value [5, 8] is reported as “No”, the “Compatibility with Doxycycline Hyclate” value [2, 8] is reported as “No” and the “Compatibility with MCH” value [1, 12] is reported as “incompatible”. The “Compatibility with Minocycline HCl” value [1] was “No”.

In the case of BHA/BHT, the “Effect of antioxidant on MCH degradation” value [1] is reported as “did not prevent MCH degradation”.

With `CC(O)CC(C)(C)O` (stereo not drawn) [Hexylene Glycol] the “Compatibility with Doxycycline Monohydrate” value [5, 10] was “oxidized”, the “Compatibility with Doxycycline Monohydrate” value [5, 8] was “No” and the “Compatibility with MCH” value [1, 12] was “incompatible”. For the same compound, the “Compatibility with Minocycline HCl” value [1] was “No”.

For Sorbitan Monolaurate, the “Compatibility with Doxycycline Monohydrate” value [5, 8] was “No”, the “Compatibility with Doxycycline Hyclate” value [2, 8] was “No” and the “Compatibility with Minocycline HCl” value [1] was “No”.
